In PMC12678798, “Discovery of an allosteric binding site for anthraquinones at the human P2X4 receptor” (Nature Communications, 2025):
Positions count from the first letter of the chain named. Entries after “also recorded” stand apart in the source; their conditions may differ. Where two headings read alike, the source gives them in different places.

Experiments:
human wt P2X2 receptor = target: T1, human wt P2X2 receptor (Homo sapiens, UniProt Q9UBL9); test: ATP-induced calcium influx assay, human wt P2X2 receptor in 1321N1 astrocytoma cells; format: cell-based; settings: for IC50: wt hP2X2
T1 construct: expressed in transfected cells
T1 sequence (Q9UBL9 1-471): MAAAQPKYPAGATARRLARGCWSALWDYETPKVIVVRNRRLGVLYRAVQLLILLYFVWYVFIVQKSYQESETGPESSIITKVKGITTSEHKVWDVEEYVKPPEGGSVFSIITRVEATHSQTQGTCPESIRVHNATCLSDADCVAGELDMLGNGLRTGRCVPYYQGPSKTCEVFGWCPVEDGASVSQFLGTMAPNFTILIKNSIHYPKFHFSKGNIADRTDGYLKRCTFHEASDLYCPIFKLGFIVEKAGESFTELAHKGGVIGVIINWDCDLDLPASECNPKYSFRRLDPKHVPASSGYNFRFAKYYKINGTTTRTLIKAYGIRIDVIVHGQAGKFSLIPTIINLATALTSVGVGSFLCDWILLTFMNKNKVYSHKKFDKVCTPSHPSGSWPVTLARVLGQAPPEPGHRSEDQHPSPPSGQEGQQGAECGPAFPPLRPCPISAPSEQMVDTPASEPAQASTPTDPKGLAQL

[1] = Physicochemical properties (water solubility, lipophilicity); settings: as stated in words
[2] = target: T2, human P2X4-E307T receptor mutant (Homo sapiens, UniProt Q99571, E307T); test: ATP-induced calcium influx assay, P2X4-E307T mutant in 1321N1 astrocytoma cells; format: cell-based; settings: for Potency increase at P2X4-E307T compared to wt P2X4: ratio of IC50 values, calcium influx
T2 construct: expressed in transfected cells
T2 sequence (Q99571 1-388 E307T): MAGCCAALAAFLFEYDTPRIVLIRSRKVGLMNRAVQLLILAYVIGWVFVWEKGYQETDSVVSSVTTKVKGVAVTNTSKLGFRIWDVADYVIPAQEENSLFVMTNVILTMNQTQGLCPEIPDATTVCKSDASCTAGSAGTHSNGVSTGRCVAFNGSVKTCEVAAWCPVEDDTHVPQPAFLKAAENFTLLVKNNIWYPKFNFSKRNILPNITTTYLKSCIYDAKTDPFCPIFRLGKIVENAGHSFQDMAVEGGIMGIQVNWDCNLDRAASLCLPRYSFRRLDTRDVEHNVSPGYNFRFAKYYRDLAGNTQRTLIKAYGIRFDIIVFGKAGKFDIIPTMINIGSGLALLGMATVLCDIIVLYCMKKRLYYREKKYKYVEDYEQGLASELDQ

[3] = target: T3, chimeric P2X4(P2X2) receptor c6^N208-S216 (Homo sapiens, UniProt Q99571, I209R/N208D/S216R/T211D/T212G); settings: ATP at EC80
T3 sequence (Q99571 1-388 N208D/I209R/T211D/T212G/S216R): T2 sequence (Q99571 1-388 E307T) with N208D, I209R, T211D, T212G, S216R, T307E

human wt P2X4 receptor = target: T4, human wt P2X4 receptor (Homo sapiens, UniProt Q99571); test: ATP-induced calcium influx assay, human wt P2X4 receptor in 1321N1 astrocytoma cells; format: cell-based
T4 construct: expressed in transfected cells
T4 sequence (Q99571 1-388): T2 sequence (Q99571 1-388 E307T) with T307E

[4] = target: T5, P2X4-Q308T receptor mutant (Homo sapiens, UniProt Q99571, Q308T); settings: calcium influx
T5 sequence (Q99571 1-388 Q308T): T2 sequence (Q99571 1-388 E307T) with T307E, Q308T

[5] = target: T6, P2X4 receptor mutant E307T_R301K (Homo sapiens, UniProt Q99571, E307T/R301K); test: TEVC, double mutant E307T_R301K in Xenopus laevis oocytes; format: cell-based; settings: 10 µM ATP, 2 min preincubation
T6 construct: host or cells: Xenopus laevis oocytes injected with cRNA (pNKS2 vector)
Procedure: (§1) Xenopus laevis frogs were from Nasco International (Fort Atkinson, WI, USA) and kept at the Core Facility Animal Models (CAM) of the BMC of LMU Munich, Germany (Az: 4.3.2–5682/LMU/BMC/CAM) in accordance with the EU Animal Welfare Act. […] Fifty nanoliters of cRNA (0.5 µg/µL) were injected using a Nanoject II injector (Science Products, Drummond, USA) and oocytes were kept in ND96 (96 mM NaCl, 2 mM KCl, 1 mM MgCl2, 1 mM CaCl2, 5 mM HEPES, pH 7.4–7.5) supplemented with 5 μg/mL gentamicin at 16 °C.
(§2) cDNA encoding human P2X4 receptor (NM_002560.3) was obtained from BioCat GmbH (Heidelberg, Germany) and cloned into the pNKS2 vector[87] using Gibson Assembly (E2621L, New England Biolabs, USA) according to the manufacturer’s instructions. Point mutations were introduced by site-directed mutagenesis using KLD Enzyme Mix (M0554S, New England Biolabs, USA). All constructs were verified by full-length cDNA sequencing (Eurofins Genomics, Germany). Plasmids were linearized with NotI-HF (R3189S, New England Biolabs, USA) and purified using the MinElute Reaction Cleanup Kit (Qiagen, Hilden, Germany). […]
(§3) Statistical analysis was performed with GraphPad Prism version 10 software, and data are presented as means ± SEM. Data were assessed for normality using the Shapiro–Wilk test and for homogeneity of variances using Levene’s test. […]

[6] = target: T7, P2X4 receptor mutant E307T_R301A (Homo sapiens, UniProt Q99571, E307T/R301A); test: TEVC, double mutant E307T_R301A in Xenopus laevis oocytes; format: cell-based; settings: 10 µM ATP, 2 min preincubation
T7 construct: host or cells: Xenopus laevis oocytes injected with cRNA (pNKS2 vector)
Procedure: as §1, §2, §3

[7] = target: T8, P2X4 receptor mutant E307T_K298A (Homo sapiens, UniProt Q99571, E307T/K298A); test: TEVC, double mutant E307T_K298A in Xenopus laevis oocytes; format: cell-based; settings: 10 µM ATP, 2 min preincubation
T8 construct: host or cells: Xenopus laevis oocytes injected with cRNA (pNKS2 vector)
Procedure: as §1, §2, §3

[8] = target: T9, P2X4 receptor mutant E307T_R82A (Homo sapiens, UniProt Q99571, E307T/R82A); test: TEVC, double mutant E307T_R82A in Xenopus laevis oocytes; format: cell-based; settings: 10 µM ATP, 2 min preincubation
T9 construct: host or cells: Xenopus laevis oocytes injected with cRNA (pNKS2 vector)
Procedure: as §1, §2, §3

[9] = target: T10, P2X4 receptor mutant E307Q (Homo sapiens, UniProt Q99571, E307Q); test: TEVC, P2X4-E307Q mutant in Xenopus laevis oocytes; format: cell-based; settings: 10 µM ATP, 2 min preincubation, PSB-0704 3 µM, PSB-0739 300 nM and 1 µM
T10 construct: host or cells: Xenopus laevis oocytes injected with cRNA (pNKS2 vector)
Procedure: as §1, §2, §3

[10] = target: T11, hP2X4-E307T receptor mutant (Homo sapiens, UniProt Q99571, E307T); test: Two-electrode voltage clamp (TEVC), P2X4-E307T in Xenopus laevis oocytes; format: cell-based; settings: for Inhibition of ATP-induced current: E307T, 10 µM ATP, 2 min preincubation, PSB-0704 3 µM, PSB-0739 300 nM and 1 µM; for IC50: read-out: pIC50 (inhibition of ATP-induced current) (converted)
T11 construct: host or cells: Xenopus laevis oocytes injected with cRNA (pNKS2 vector)
T11 sequence (Q99571 1-388 E307T): T2 sequence (Q99571 1-388 E307T)

[11] = target: T12, chimeric P2X4(P2X2) receptor c10^R301-Q308 (Homo sapiens, UniProt Q99571, A304N/D302K/DEL301-301/E307T/L303I/N306T/Q308T); test: ATP-induced calcium influx assay, chimeric receptor c10 in 1321N1 astrocytoma cells; format: cell-based
T12 construct: expressed in transfected cells; gene synthesis (Geneart), pLVX-IRES-mCherry (bicistronic, mCherry not fused)
T12 sequence (Q99571 with tags, fused parts or gaps DEL301-301/D302K/L303I/A304N/N306T/E307T/Q308T): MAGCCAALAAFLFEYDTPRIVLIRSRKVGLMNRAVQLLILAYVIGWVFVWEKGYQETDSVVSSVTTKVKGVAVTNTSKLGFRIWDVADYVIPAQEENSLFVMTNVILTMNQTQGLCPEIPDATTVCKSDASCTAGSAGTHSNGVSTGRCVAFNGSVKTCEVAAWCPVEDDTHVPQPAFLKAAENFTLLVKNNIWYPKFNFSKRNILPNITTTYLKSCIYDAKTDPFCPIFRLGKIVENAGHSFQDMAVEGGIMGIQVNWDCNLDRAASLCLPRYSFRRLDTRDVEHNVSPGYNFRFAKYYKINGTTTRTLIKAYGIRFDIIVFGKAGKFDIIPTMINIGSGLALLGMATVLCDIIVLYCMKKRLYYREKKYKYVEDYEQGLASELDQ

T6 sequence (Q99571 whole entry R301K/E307T): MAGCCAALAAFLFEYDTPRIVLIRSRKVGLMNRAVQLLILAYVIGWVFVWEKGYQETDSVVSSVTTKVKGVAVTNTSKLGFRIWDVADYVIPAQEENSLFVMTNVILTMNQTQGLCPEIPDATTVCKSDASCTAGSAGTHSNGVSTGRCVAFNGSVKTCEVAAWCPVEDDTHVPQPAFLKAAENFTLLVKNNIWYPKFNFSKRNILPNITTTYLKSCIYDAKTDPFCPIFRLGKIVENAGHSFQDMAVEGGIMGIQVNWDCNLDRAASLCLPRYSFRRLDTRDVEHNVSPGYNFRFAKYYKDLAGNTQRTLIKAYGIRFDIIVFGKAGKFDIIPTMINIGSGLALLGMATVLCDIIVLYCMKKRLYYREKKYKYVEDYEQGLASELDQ
T8 sequence (Q99571 whole entry K298A/E307T): as the sequence (Q99571 whole entry R301K/E307T) above, with K298A, K301R counted along it
T9 sequence (Q99571 whole entry R82A/E307T): as the sequence (Q99571 whole entry R301K/E307T) above, with R82A, K301R counted along it
T10 sequence (Q99571 whole entry E307Q): as the sequence (Q99571 whole entry R301K/E307T) above, with K301R, T307Q counted along it
T7 sequence (Q99571 whole entry R301A/E307T): as the sequence (Q99571 whole entry R301K/E307T) above, with K301A counted along it

| SMILES | Kind of modulation at an EC20 of ATP (human wt P2X2 receptor; P2X2, ATP […] (EC20)) | IC50 (human wt P2X2 receptor; ATP at EC80, read-out: IC50) | IC50 (human wt P2X2 receptor; read-out: pIC50 ± SEM (n value) (converted)) | Water solubility [1] | Potency increase at P2X4-E307T compared to wt P2X4 [2] | Kind of modulation (shape of concentration-response curve) [3] | Enhancement of the ATP effect at low concentrations (human wt P2X4 receptor; wt P2X4, ATP at EC80) | Kind of modulation (shape of concentration-response curve) (human wt P2X4 receptor; wt P2X4, ATP at EC80) | Potency at P2X4-Q308T compared to wt P2X4 [4] | Effect of mutation on antagonist potency (vs E307T) [5] | IC50 [2] | Effect of mutation on antagonist potency (vs E307T) [6] | IC50 (human wt P2X4 receptor) | Effect of mutation on antagonist potency (vs E307T) [7] | Effect of mutation on antagonist potency (vs E307T) [8] | Inhibition of ATP-induced current [9] | Inhibition of ATP-induced current [10] | IC50 [10] | IC50 [11] |
| --- | --- | --- | --- | --- | --- | --- | --- | --- | --- | --- | --- | --- | --- | --- | --- | --- | --- | --- | --- |
| Nc1c(S(=O)(=O)O)cc(Nc2ccc(Nc3nc(Cl)nc(Nc4ccccc4S(=O)(=O)O)n3)c(S(=O)(=O)O)c2)c2c1C(=O)c1ccccc1C2=O [Cibacron Blue] | no clear activating effect | 13.1 µM | 12.6 µM | water-soluble | 680 fold | biphasic modulation | up to 141% | biphasic modulation | similar | – | – | – | – | – | – | – | – | – | – |
| Nc1c(C(=O)O)cc(Nc2ccc(Nc3ccccc3)c(C(=O)O)c2)c2c1C(=O)c1ccccc1C2=O [PSB-0704] | – | – | – | water-soluble | > 170 fold | – | – | – | – | similarly potent; also recorded: no consequences | 0.0724 ± 0.0102 µM | reduction in inhibitory potency | 12.5 ± 1.9 µM | reduction in inhibitory potency | reduction in inhibitory potency | strong inhibition | strong inhibition | 1.62 µM | – |
| Nc1c(S(=O)(=O)O)cc(Nc2ccc(Nc3ccccc3)c(S(=O)(=O)O)c2)c2c1C(=O)c1ccccc1C2=O [PSB-0739] | – | – | – | – | – | – | – | – | – | similarly potent; also recorded: no consequences | 0.0353 ± 0.0047 µM | reduction in inhibitory potency | 8.91 ± 0.67 µM | reduction in inhibitory potency | reduction in inhibitory potency | strong inhibition | strong inhibition | 0.324 µM | 0.00341 ± 0.00049 µM |
